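These data come from cells grown in 96-well plates and exposed to compound for 48 hours at five concentrations. Abbreviation: GI50, concentration required for 50% inhibition of growth. TGI: concentration producing complete growth inhibition.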
What was measured:
Experiment in all cases: DTP human tumour cell line panel, 48 h
LOX IMVI melanoma = system: LOX IMVI melanoma
SF-539 CNS = system: SF-539 CNS
UACC-257 melanoma = system: UACC-257 melanoma
HCT-116 colon = system: HCT-116 colon
SK-MEL-5 melanoma = system: SK-MEL-5 melanoma
SF-295 CNS = system: SF-295 CNS
HCC-2998 colon = system: HCC-2998 colon
NCI-H522 lung = system: NCI-H522 lung
CAKI-1 renal = system: CAKI-1 renal
KM12 colon = system: KM12 colon

Row | SMILES | TGI (LOX IMVI melanoma) [µM] | TGI (SF-539 CNS) [µM] | TGI (UACC-257 melanoma) [µM] | TGI (HCT-116 colon) [µM] | TGI (SK-MEL-5 melanoma) [µM] | TGI (SF-295 CNS) [µM] | TGI (HCC-2998 colon) [µM] | TGI (NCI-H522 lung) [µM] | TGI (CAKI-1 renal) [µM] | TGI (KM12 colon) [µM] | GI50 (LOX IMVI melanoma) [µM] | GI50 (SF-539 CNS) [µM] | GI50 (UACC-257 melanoma) [nM] | GI50 (HCT-116 colon) [nM] | GI50 (SK-MEL-5 melanoma) [nM] | GI50 (CAKI-1 renal) [µM] | GI50 (KM12 colon) [µM] | GI50 (SF-295 CNS) [nM] | GI50 (HCC-2998 colon) [nM] | GI50 (NCI-H522 lung) [µM]
1 | COC(=O)CC1NC(=O)C1C(C)(OC)OC (stereo not given) | > 100 | > 100 | > 100 | > 100 | > 100 | > 100 | > 100 |  |  |  |  |  |  |  |  |  |  |  |  | 
2 | COc1ccc2c(c1)CC1N(C)CCC13CCCCC23 (stereo not given) | > 100 |  | > 100 | > 100 | > 100 | > 100 | > 100 | > 100 | > 100 | > 100 |  |  |  |  |  |  |  |  |  | 
3 | CN(CCCCN)c1ccc2c(=O)[nH][nH]c(=O)c2c1 | > 100 | > 100 | > 100 | > 100 |  | > 100 | > 100 | > 100 | > 100 | > 100 |  |  |  |  |  |  |  |  |  | 
4 | Cc1ccnc(NC(c2ccccc2)c2ccc3cccnc3c2O)c1 (stereo not given) | 34.2 | 19.2 | 9.9 | 14.5 | 15.6 | 16.3 | > 100 |  | 7.17 | > 100 | 3.29 | 3.35 | 2620 | 2940 | 4310 | 1.68 | 4.15 | 2420 | 7120 | 
5 | NNC(=S)NN/C=C(\C=Nc1ccccc1)[N+](=O)[O-] | > 100 | > 100 | > 100 | > 100 |  | > 100 | > 100 | > 100 | > 100 |  |  |  |  |  |  |  |  |  |  | 
6 | COc1c(OC)c(OC)c(-c2cc(=O)c3c(OC)c(OC)c(OC)c(OC)c3o2)c(OC)c1OC | > 100 | > 100 | > 100 | 44.9 | 74.9 | > 100 | > 100 | 33.8 | > 100 |  |  |  |  |  |  |  |  |  |  | 
7 | C=CCn1c(=O)c(C(=O)NC(=O)OCC)cn(C2CCCCC2)c1=O | > 100 | > 100 | > 100 | > 100 | > 100 | > 100 | > 100 |  | > 100 | > 100 |  |  |  |  |  |  |  |  |  | 
8 | Cc1cc(C)c(C2=NO[C@@H]3C(=O)N(c4ccc(Cc5ccc(N6C(=O)[C@H]7C(c8c(C)cc(C)cc8C)=NO[C@H]7C6=O)cc5)cc4)C(=O)[C@H]23)c(C)c1 | > 100 | > 100 | > 100 |  | > 100 | > 100 | > 100 |  | > 100 | > 100 |  |  |  |  |  |  |  |  |  | 
9 | COc1cc2oc(-c3ccc(O)cc3)cc(=O)c2c(OC)c1O | > 100 | > 100 | > 100 | > 100 | > 100 | > 100 | > 100 | > 100 | > 100 |  |  |  |  |  |  |  |  |  |  | 
10 | O=c1[nH]c(-c2ccc([N+](=O)[O-])cc2)nc2ccc(Cl)cc12 |  | > 100 | > 100 | > 100 | > 100 | > 100 | > 100 |  |  | > 100 |  |  |  |  |  |  |  |  |  | 
11 | CCOC(=O)Nc1cc(-c2ccc(C)c(NS(C)(=O)=O)c2)nn2c(C)nnc12 |  | > 100 | > 100 | 15.3 | 10.4 | 56.3 | 3.37 | 3.22 | 23.6 | 19.7 |  | 1.86 | 1110 | 1900 | 2680 | 0.537 | 2.02 | 1850 | 1590 | 0.381
12 | NCCCCCCCCCn1c2c(c3ccccc3c1=O)C(=O)c1ccccc1-2 | 23.6 | 19.3 | 22.7 | 17.2 | 17.7 | 20.8 |  | 24.4 | 18.8 | 22.2 | 7.38 | 9.83 | 10100 | 6500 | 8400 | 9.15 | 9.53 | 9670 |  | 8.83
13 | COC(=O)Cc1nn2c(nc1=O)sc1ccc3ccccc3c12 | > 100 | > 100 | > 100 | > 100 | > 100 |  | > 100 | > 100 | > 100 | > 100 |  |  |  |  |  |  |  |  |  | 
14 | CCOC(=O)Cn1c(=O)[nH]c(=O)c2[nH]cnc21 | > 100 | > 100 | > 100 | > 100 | > 100 |  | > 100 | > 100 |  | > 100 |  |  |  |  |  |  |  |  |  | 
15 | COc1ccc(C2NC3=C(CCCC3)N2)cc1 | > 100 | > 100 | > 100 | > 100 | 67.5 | > 100 | > 100 | > 100 |  | > 100 |  |  |  |  |  |  |  |  |  | 
16 | C1C[S][Ge]2([S]CCS1)[S]CCSCC[S]2 |  | > 100 |  | > 100 |  |  | > 100 | > 100 | > 100 |  |  | > 100 |  | > 100000 |  | > 100 |  |  | > 100000 | > 100
17 | COc1cc(CC(=O)c2cc3c(cc2-c2ccccc2)OCO3)cc(OC)c1OC | > 100 | > 100 | > 100 | > 100 | 27.1 | > 100 | > 100 | > 100 |  | > 100 |  |  |  |  |  |  |  |  |  | 
18 | O=[N+]([O-])c1cccc([I+]c2ccccc2)c1 | 20.1 | 24.3 | 28 | 24.2 | 10.8 | 25.6 |  | 23.5 | 49 | 26.1 | 6.21 | 10.8 | 12100 | 7050 | 2270 | 3.42 | 12 | 10900 |  | 11.3
19 | Cc1nc2cc(Nc3nc(Nc4ccc(F)cc4)nc(N4CCCC4)n3)ccc2n1Cc1ccccc1 | 3.36 | 3.32 | 5.88 | 3.09 | 3.09 | 4.78 | 3.73 | 4.07 |  | 3.51 | 1.84 | 1.79 | 2320 | 1660 | 1660 |  | 1.86 | 2150 | 1930 | 1.69

Source: PubChem BioAssay (NCI)
